The record followed here is US12213479B2, “Monoterpenoid/phenylpropanoid-containing compounds and methods of their making and use as herbicides” (KITTRICH CORPORATION, priority 2016, dated 2025).

Structures are written as SMILES.

The experiment concerns Soybean plants. In words: Foliar spray assay, soybean plants. The class given is in vivo. Conditions: 1% foliar spray; for phytotoxic effects on soybean plants (words), foliar spray: 1-month old soybean plants, up to 14 days after exposure; for chlorosis / leaf death: soybean plants. The method, then: Soybean plants were planted under 1 cm of potting soil and watered every 2-3 days as necessary. Plants were grown in pots (6″ wide×4.5″ deep) with approximately 800 mL of soil for each plant. Plants germinated approximately 3-5 days after being planted. Plants were grown in a greenhouse under a constant temperature and light environment (25±5° C., 12 hr:12 hr light:dark cycle). Plants were grown until reaching 4 weeks old and were then used for the foliar spray experiment.
Formulations were made to include 1% thymyloxyacetic acid, 0.269% potassium hydroxide, and 0.25% Triton-X 100™. Soybean plants were sprayed with 10 mists from a MAINStays™ Ironing Spray bottle set to the mist setting. This corresponded to the minimum amount necessary to cause dripping from the leaves of the plants. […] Plants were placed under high intensity light (directly below greenhouse lamps) and low intensity light (not under lamp/ambient light environment). Light intensity was chosen as a factor for this experimental design. […] This effect is greatly diminished under low intensity light conditions. If thymyloxyacetic acid is causing phytotoxicity in the same mechanism of action as other plant terpenoids, there should be a drastic difference in the phytotoxicity among these different levels of light intensity.

On to `Cc1ccc(C(C)C)c(OCC(=O)O)c1` [thymyloxyacetic acid, 2-(2-isopropyl-5-methylphenoxy)acetic acid], for which the “phytotoxic effects on soybean plants (words), foliar spray” value is “significant chlorosis and wilting”. The “phytotoxic effects on soybean plants (words), foliar spray” value (listed as Thymyloxyacetic acid) is recorded as “significant phytotoxic effects”. Moreover, where the note is “High intensity light”, the chlorosis result is “✓” and the leaf death result is reported as “✓”. For the same compound, where the note is “Low intensity light”, the chlorosis entry is recorded as “✓” and the leaf death entry is given as “✓”.
